Assay results: ChEMBL document CHEMBL3813687, “A combined ligand- and structure-based approach for the identification of rilmenidine-derived compounds which synergize the antitumor effects of doxorubicin” (Bioorg Med Chem, 2016)
Activity calls are given as the source filed them. The rule behind the calls is not given here.

Columns and labels:
Nischarin [1] = molecular target: T1, Nischarin (Rattus norvegicus, UniProt Q4G017); test: Displacement of [125I]PIC from Imidazoline-1 receptor in rat PC12 cell membrane incubated for 30 mins by gamma counting method; assay type: cell membranes, PC-12
[2] = Displacement of [3H]-clonidine from Imidazoline-1 receptor in bovine chromaffin cell membranes incubated for 40 mins in presence of RX821002; design: species or system Bos taurus
[3] = molecular target: T2, Alpha-2A adrenergic receptor (Homo sapiens, UniProt P08913); test: Intrinsic activity at recombinant human alpha2A adrenoreceptor expressed in CHOK1 cell membrane incubated for 30 mins by [35S]GTPgammaS binding assay relative to adrenaline; assay type: cell membranes; settings: CHO-K1, human, 0.5 h; read-out: Intrinsic activity
T2 sequence (P08913 whole entry): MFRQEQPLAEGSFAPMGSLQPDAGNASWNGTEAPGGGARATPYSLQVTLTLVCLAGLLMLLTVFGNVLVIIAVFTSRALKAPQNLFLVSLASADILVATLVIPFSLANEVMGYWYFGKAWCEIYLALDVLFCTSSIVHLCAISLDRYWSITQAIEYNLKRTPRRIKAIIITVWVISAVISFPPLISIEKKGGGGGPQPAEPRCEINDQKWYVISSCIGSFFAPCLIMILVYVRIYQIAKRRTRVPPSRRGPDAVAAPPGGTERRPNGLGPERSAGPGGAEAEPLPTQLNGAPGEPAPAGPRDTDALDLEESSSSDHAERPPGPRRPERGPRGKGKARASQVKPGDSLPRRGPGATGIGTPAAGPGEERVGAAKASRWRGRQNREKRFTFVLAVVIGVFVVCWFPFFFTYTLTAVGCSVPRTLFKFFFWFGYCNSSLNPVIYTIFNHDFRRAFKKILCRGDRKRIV

[4] = molecular target: T2, Alpha-2A adrenergic receptor; test: Displacement of [3H]RS-79948-197 from recombinant human alpha2A adrenoreceptor expressed in CHOK1 cell membrane by scintillation counting method; assay type: cell membranes, CHO-K1; settings: read-out: Ki(app)
K562 [5] = test: Antiproliferative activity against human K562 cells assessed as inhibition of cell survival after 48 hrs by MTT assay; assay type: functional, cell-based; settings: K562, 48 h
Nischarin [6] = molecular target: T1, Nischarin; test: Displacement of [125I]PIC from Imidazoline-1 receptor in rat PC12 cell membrane by gamma counting method; assay type: cell membranes, PC-12
[7] = Displacement of [3H]-clonidine from Imidazoline-1 receptor in bovine adrenal medullary plasma membrane incubated for 40 mins in presence of RX821002; design: species or system Bos taurus
K562 [8] = test: Induction of apoptosis in human K562 cells assessed as early apoptotic cells at 50 uM after 48 hrs by Annexin V-FITC/propidium iodide staining based flow cytometry (reference value: 5%); assay type: functional
K562 [9] = test: Potentiation of doxorubicin-induced apoptosis in human K562 cells assessed as early apoptotic cells at 50 uM after 48 hrs by Annexin V-FITC/propidium iodide staining based flow cytometry relative to control; assay type: functional
[10] = molecular target: T2, Alpha-2A adrenergic receptor
Description: Agonist activity at recombinant human alpha2A adrenoreceptor expressed in CHOK1 cell membrane incubated for 30 mins by [35S]GTPgammaS binding assay

K562 [11] = test: Induction of apoptosis in human K562 cells assessed as early apoptotic cells at 300 uM up to 48 hrs by Annexin V-FITC/propidium iodide staining based flow cytometry; assay type: functional, cell-based
K562 [12] = test: Induction of apoptosis in human K562 cells assessed as necrotic cells at 1 uM after 48 hrs by Annexin V-FITC/propidium iodide staining based flow cytometry (reference value: 1%); assay type: functional
K562 [13] = test: Induction of apoptosis in human K562 cells assessed as early apoptotic cells at 1 uM after 48 hrs by Annexin V-FITC/propidium iodide staining based flow cytometry (reference value: 5%); assay type: functional
K562 [14] = test: Cell cycle arrest in human K562 cells assessed as increase in G2/M cell population after 48 hrs by propidium iodide staining based flow cytometry; assay type: functional
K562 [15] = test: Induction of apoptosis in human K562 cells assessed as early apoptotic cells at 1 uM after 48 hrs by Annexin V-FITC/propidium iodide staining based flow cytometry relative to control; assay type: functional
K562 [16] = test: Induction of apoptosis in human K562 cells assessed as late apoptotic cells at 1 uM after 48 hrs by Annexin V-FITC/propidium iodide staining based flow cytometry (reference value: 1%); assay type: functional
K562 [17] = test: Potentiation of 0.36 uM doxorubicin-induced cytotoxicity in human K562 cells assessed as combination index at 25 uM after 48 hrs by MTT assay relative to control; assay type: functional
K562 [18] = test: Potentiation of 1.4 uM doxorubicin-induced cytotoxicity in human K562 cells assessed as combination index at 100 uM after 48 hrs by MTT assay relative to control; assay type: functional
K562 [19] = test: Induction of apoptosis in human K562 cells assessed as late apoptotic cells at 70 uM after 48 hrs by Annexin V-FITC/propidium iodide staining based flow cytometry (reference value: 1%); assay type: functional
[20] = molecular target: Tyrosine-protein kinase ABL1 (Homo sapiens) (UniProt P00519); test: Inhibition of recombinant human N-terminal His-tagged ABL expressed in baculovirus infected sf9 cells using abtide as substrate assessed as residual activity at 100 uM in presence of NP40 by [gamma32P]ATP filter binding assay relative to control
K562 [21] = test: Potentiation of doxorubicin-mediated cell cycle arrest in human K562 cells assessed as decrease in G2/M cell population after 48 hrs by propidium iodide staining based flow cytometry; assay type: functional
K562 [22] = test: Potentiation of 0.7 uM doxorubicin-induced cytotoxicity in human K562 cells assessed as combination index at 50 uM after 48 hrs by MTT assay relative to control; assay type: functional
K562 [23] = test: Cell cycle arrest in human K562 cells assessed as accumulation at S phase at 70 uM after 48 hrs by propidium iodide staining based flow cytometry (reference value: 29%); assay type: functional
K562 [24] = test: Cell cycle arrest in human K562 cells assessed as accumulation at G2/M phase at 70 uM after 48 hrs by propidium iodide staining based flow cytometry (reference value: 26%); assay type: functional
K562 [25] = test: Induction of apoptosis in human K562 cells assessed as necrotic cells at 70 uM after 48 hrs by Annexin V-FITC/propidium iodide staining based flow cytometry (reference value: 1%); assay type: functional
K562 [26] = test: Potentiation of doxorubicin-induced apoptosis in human K562 cells assessed as necrotic cells at 70 uM after 48 hrs by Annexin V-FITC/propidium iodide staining based flow cytometry (reference value: 1%); assay type: functional
K562 [27] = test: Inhibition of colony formation in human K562 cells after 24 hrs by clonogenic assay; assay type: functional, cell-based
K562 [28] = test: Induction of apoptosis in human K562 cells assessed as early apoptotic cells at 70 uM after 48 hrs by Annexin V-FITC/propidium iodide staining based flow cytometry (reference value: 5%); assay type: functional
[29] = molecular target: Tyrosine-protein kinase ABL1 (Homo sapiens) (UniProt P00519); test: Inhibition of recombinant human N-terminal His-tagged ABL expressed in baculovirus infected sf9 cells using abtide as substrate assessed as residual activity at 100 uM by [gamma32P]ATP filter binding assay relative to control
K562 [30] = test: Potentiation of doxorubicin-mediated cell cycle arrest in human K562 cells assessed as increase in sub-G1 cell population after 48 hrs by propidium iodide staining based flow cytometry; assay type: functional
K562 [31] = test: Potentiation of doxorubicin-induced apoptosis in human K562 cells assessed as early apoptotic cells at 70 uM after 48 hrs by Annexin V-FITC/propidium iodide staining based flow cytometry (reference value: 5%); assay type: functional
K562 [32] = test: Potentiation of 0.36 uM doxorubicin-induced cytotoxicity in human K562 cells assessed as inhibition of cell survival at 25 uM after 48 hrs by MTT assay relative to control; assay type: functional
K562 [33] = test: Potentiation of doxorubicin-induced apoptosis in human K562 cells assessed as late apoptotic cells at 70 uM after 48 hrs by Annexin V-FITC/propidium iodide staining based flow cytometry (reference value: 1%); assay type: functional
[34] = molecular target: Proto-oncogene tyrosine-protein kinase Src (Homo sapiens) (UniProt P12931); test: Inhibition of recombinant human N-terminal poly His/GST-tagged SRC expressed in baculovirus infected insect cells using KVEKIGEGTYGVVYK peptide substrate assessed as residual activity at 100 uM by [gamma32P]ATP filter binding assay relative to control
K562 [35] = test: Cell cycle arrest in human K562 cells assessed as accumulation at G0/G1 phase at 70 uM after 48 hrs by propidium iodide staining based flow cytometry (reference value: 42%); assay type: functional
K562 [36] = test: Potentiation of 1 uM doxorubicin-induced cytotoxicity in human K562 cells assessed as inhibition of cell survival at 70 uM after 48 hrs by MTT assay relative to control; assay type: functional
[37] = molecular target: Proto-oncogene tyrosine-protein kinase Src (Homo sapiens) (UniProt P12931); test: Inhibition of recombinant human N-terminal poly His/GST-tagged SRC expressed in baculovirus infected insect cells using KVEKIGEGTYGVVYK peptide substrate assessed as residual activity at 100 uM in presence of NP40 by [gamma32P]ATP filter binding assay relative to control
K562 [38] = test: Cell cycle arrest in human K562 cells assessed as accumulation at sub-G1 phase at 70 uM after 48 hrs by propidium iodide staining based flow cytometry (reference value: 3%); assay type: functional
K562 [39] = test: Antiproliferative activity against human K562 cells at 70 uM after 24 hrs by clonogenic assay relative to control; assay type: functional; settings: K562, 24 h, read-out: GI
K562 [40] = test: Potentiation of 0.7 uM doxorubicin-induced cytotoxicity in human K562 cells assessed as inhibition of cell survival at 50 uM after 48 hrs by MTT assay relative to control; assay type: functional
K562 [41] = test: Potentiation of 1.4 uM doxorubicin-induced cytotoxicity in human K562 cells assessed as inhibition of cell survival at 100 uM after 48 hrs by MTT assay relative to control; assay type: functional
K562 [42] = test: Potentiation of 1 uM doxorubicin-induced cytotoxicity in human K562 cells assessed as combination index at 70 uM after 48 hrs by MTT assay relative to control; assay type: functional

T1 sequence (Q4G017 whole entry): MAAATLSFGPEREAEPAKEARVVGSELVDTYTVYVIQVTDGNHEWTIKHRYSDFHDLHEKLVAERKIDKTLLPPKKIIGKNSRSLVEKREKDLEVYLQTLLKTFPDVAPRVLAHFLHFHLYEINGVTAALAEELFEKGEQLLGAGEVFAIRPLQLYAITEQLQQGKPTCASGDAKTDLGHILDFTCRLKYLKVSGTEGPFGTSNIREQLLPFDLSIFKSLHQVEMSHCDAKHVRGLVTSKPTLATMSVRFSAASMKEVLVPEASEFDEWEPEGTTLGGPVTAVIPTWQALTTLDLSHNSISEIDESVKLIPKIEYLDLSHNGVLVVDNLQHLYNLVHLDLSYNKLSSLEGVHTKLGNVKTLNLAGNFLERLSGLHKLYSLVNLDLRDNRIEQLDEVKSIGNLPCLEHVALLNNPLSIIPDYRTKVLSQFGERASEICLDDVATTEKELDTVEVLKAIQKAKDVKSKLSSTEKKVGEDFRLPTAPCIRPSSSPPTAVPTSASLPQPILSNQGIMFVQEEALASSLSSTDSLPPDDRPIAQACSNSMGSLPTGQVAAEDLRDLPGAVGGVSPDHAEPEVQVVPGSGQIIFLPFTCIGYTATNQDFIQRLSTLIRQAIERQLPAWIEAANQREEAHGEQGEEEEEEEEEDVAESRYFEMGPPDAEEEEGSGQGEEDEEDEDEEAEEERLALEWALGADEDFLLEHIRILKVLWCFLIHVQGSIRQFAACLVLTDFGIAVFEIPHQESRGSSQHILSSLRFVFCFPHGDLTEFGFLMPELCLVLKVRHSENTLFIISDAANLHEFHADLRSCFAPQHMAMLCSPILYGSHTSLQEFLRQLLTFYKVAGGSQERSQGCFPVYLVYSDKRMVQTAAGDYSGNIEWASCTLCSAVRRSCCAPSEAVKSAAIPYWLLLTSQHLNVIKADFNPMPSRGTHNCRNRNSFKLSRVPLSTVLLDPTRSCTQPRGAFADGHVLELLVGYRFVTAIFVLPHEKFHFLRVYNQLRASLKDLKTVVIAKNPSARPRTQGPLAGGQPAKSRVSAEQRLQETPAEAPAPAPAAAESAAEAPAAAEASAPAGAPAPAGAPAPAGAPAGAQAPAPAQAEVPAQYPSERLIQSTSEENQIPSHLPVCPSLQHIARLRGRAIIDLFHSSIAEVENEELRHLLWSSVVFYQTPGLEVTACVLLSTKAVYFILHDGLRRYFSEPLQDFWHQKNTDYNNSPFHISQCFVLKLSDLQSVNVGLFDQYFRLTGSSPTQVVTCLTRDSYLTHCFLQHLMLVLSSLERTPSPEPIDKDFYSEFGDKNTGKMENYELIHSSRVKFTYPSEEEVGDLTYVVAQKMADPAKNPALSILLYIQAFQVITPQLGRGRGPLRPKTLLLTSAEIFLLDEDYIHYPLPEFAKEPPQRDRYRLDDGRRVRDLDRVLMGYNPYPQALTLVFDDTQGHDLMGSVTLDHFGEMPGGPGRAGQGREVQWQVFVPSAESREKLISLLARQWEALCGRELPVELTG
Chain of Proto-oncogene tyrosine-protein kinase Src (Homo sapiens) (P12931 2-536 limits assumed): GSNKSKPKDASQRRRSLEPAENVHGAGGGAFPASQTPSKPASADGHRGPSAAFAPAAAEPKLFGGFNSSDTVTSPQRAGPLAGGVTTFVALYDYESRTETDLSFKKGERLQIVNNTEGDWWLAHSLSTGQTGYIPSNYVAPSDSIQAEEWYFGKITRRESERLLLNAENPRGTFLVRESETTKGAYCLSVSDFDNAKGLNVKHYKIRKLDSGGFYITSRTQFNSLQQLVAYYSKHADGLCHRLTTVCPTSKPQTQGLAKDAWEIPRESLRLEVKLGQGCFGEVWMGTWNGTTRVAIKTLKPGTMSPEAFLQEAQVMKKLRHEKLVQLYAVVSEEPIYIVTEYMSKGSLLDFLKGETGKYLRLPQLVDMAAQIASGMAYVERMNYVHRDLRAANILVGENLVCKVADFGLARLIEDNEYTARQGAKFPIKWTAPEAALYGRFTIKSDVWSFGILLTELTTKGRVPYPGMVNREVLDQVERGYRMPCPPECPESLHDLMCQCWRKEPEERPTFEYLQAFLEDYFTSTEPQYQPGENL
Chain of Tyrosine-protein kinase ABL1 (Homo sapiens) (P00519 whole entry): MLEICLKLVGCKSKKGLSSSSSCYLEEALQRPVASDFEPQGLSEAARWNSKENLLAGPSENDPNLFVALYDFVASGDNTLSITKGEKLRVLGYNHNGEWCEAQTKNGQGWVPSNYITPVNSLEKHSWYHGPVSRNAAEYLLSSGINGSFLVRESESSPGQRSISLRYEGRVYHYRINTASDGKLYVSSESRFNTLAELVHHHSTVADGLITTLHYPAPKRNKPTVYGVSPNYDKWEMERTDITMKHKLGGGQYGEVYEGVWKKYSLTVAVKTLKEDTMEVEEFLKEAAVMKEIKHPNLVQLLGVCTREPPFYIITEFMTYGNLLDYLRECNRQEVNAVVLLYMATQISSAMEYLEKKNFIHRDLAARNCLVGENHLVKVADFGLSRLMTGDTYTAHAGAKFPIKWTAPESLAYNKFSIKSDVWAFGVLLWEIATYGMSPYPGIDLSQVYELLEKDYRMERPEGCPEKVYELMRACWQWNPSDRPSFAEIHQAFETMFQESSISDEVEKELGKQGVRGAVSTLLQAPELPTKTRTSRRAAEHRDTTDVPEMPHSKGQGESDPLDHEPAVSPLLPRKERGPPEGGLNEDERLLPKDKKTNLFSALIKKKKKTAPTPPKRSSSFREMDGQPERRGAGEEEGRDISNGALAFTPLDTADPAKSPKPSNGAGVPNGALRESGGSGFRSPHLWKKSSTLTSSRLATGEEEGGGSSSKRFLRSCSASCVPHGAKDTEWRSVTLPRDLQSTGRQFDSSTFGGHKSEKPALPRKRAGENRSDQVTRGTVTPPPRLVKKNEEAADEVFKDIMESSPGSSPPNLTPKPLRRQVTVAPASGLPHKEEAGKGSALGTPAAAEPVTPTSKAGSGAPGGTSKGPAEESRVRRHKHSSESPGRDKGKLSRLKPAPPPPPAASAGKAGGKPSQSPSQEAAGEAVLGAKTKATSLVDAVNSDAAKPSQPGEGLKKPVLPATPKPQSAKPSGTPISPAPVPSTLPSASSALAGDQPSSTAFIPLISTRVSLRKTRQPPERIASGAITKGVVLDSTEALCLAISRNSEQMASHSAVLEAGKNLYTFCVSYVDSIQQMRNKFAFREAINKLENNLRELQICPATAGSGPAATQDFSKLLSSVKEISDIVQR

SMILES: CC(Oc1c(Cl)cccc1Cl)C1=NCCN1 (stereo unspecified) [LOFEXIDINE]
- Ki (Nischarin [1]): 0.00562 µM

SMILES: C1CCC2N=C(NC(C3CC3)C3CC3)CC2C1 (stereo unspecified)
- pKi [2]: 4

SMILES: CCC(NC1=NCCC1)C1CC1 (stereo unspecified)
- pKi [2]: 6.29

SMILES: Cc1cc(NCc2ccc(Cl)cc2)cc(=O)n1CCC(C)C
- Emax [3]: -1%
- Ki [4]: 99 µM
- IC50 (K562 [5]): 224 µM

SMILES: c1ccc([C@H]2C[C@@H]2C2=NCCN2)cc1
- Ki (Nischarin [6]): 0.347 µM

SMILES: C(=C\c1ccccc1)/C1=NCCN1 [TRACIZOLINE]
- Ki (Nischarin [6]): 0.0191 µM

SMILES: COC1=CCCC=C1C1=NCCN1
- pKi [7]: 8.53

SMILES: CN1CCCCC1CCn1cnc2ccccc21 (stereo unspecified)
- Emax [3]: -6%
- Ki [4]: 11 µM
- IC50 (K562 [5]): > 300 µM

SMILES: C1COC(NC(C2CC2)C2CC2)=N1 [RILMENIDINE]
- Activity (K562 [8]): 20%
- Emax [3]: 54%
- Ki (Nischarin [1]): 0.0126 µM
- Ki [4]: 0.3 µM
- IC50 (K562 [5]): 65 µM
- Activity (K562 [9]): 44%
- EC50 [10]: 0.178 µM

SMILES: Cc1ccc(F)c(C2=NCCN2)c1
- pKi [7]: 8.28

SMILES: CCC1(C2=NCCN2)Cc2ccccc2O1 (stereo unspecified) [EFAROXAN]
- Emax [3]: -13%
- Activity (K562 [11]): inactive
- IC50 (K562 [5]): > 300 µM

SMILES: Clc1cccc(Cl)c1N=C1NCCN1 [CLONIDINE]
- Ki (Nischarin [1]): 0.126 µM

SMILES: COc1cccc2c1C(=O)c1c(O)c3c(c(O)c1C2=O)C[C@@](O)(C(=O)CO)C[C@@H]3O[C@H]1C[C@H](N)[C@H](O)[C@H](C)O1 [DOXORUBICIN]
- Activity (K562 [12]): 0%
- Activity (K562 [13]): 20%
- Activity (K562 [14]): Active
- Activity (K562 [15]): 10%
- Activity (K562 [16]): 0%
- IC50 (K562 [5]): 1 µM

SMILES: Cc1cc(NCCC(C)C)cc(=O)n1Cc1ccccc1
- Emax [3]: -2%
- Ki [4]: 110 µM
- IC50 (K562 [5]): > 300 µM

SMILES: CN1CCCCC1CCn1c2ccccc2c2ccccc21 (stereo unspecified)
- Ratio (K562 [17]): 0.877
- Ratio (K562 [18]): 0.688
- Activity (K562 [19]): 13%
- Activity [20]: 100%
- Activity (K562 [21]): Active
- Ratio (K562 [22]): 0.511
- Activity (K562 [23]): 16%
- Activity (K562 [24]): 10%
- Activity (K562 [25]): 9%
- Activity (K562 [26]): 1%
- inhibition (K562 [27]): Dose-dependent effect
- Emax [3]: -3%
- Activity (K562 [28]): 40%
- Activity [29]: 94%
- Activity (K562 [30]): Active
- Activity (K562 [31]): 64%
- inhibition (INH) (K562 [32]): 45.75%
- Activity (K562 [33]): 2%
- Activity [34]: 100%
- Ki [4]: 1.2 µM
- Activity (K562 [35]): 30%
- inhibition (INH) (K562 [36]): 72.21%
- Activity [37]: 96%
- Activity (K562 [38]): 44%
- inhibition of growth at 70 µM (K562 [39]): 88%
- IC50 (K562 [5]): 70 µM
- inhibition (INH) (K562 [40]): 68.62%
- inhibition (INH) (K562 [41]): 78.21%
- Ratio (K562 [42]): 0.617

SMILES: CCCCCNc1cc(C)n(Cc2ccccc2)c(=O)c1
- Emax [3]: -8%
- Ki [4]: 110 µM
- IC50 (K562 [5]): 140 µM

SMILES: CC1CCN=C1NC(C1CC1)C1CC1 (stereo unspecified)
- pKi [2]: 4
